According to patent publication US5849751A, “Amides and sulphonamides of benzylamines having heterocyclic substituents” (Bayer Aktiengesellschaft, priority 1995, dated 1998):

tested on: release of apoB-100-associated lipoproteins from liver cells (HepG2); test: Inhibition of the release of apoB-100-associated lipoproteins (HepG2 cells, immunoassay); assay type: cell-based; settings: Homo sapiens; HepG2 culture supernatant, anti-LDL immunoassay, light absorption at 450 nm vs solvent control
Procedure: 1. Inhibition of the release of apoB-100-associated lipoproteins
The test for detection of the inhibition of the release of apoB-100-associated lipoproteins from liver cells was carried out in vitro with cultured liver cells, preferably with cells of the human line HepG2. These cells are cultured under standard conditions in a medium for the culture of eukaryotic cells, preferably in RPMI 1640 with 10% foetal calf serum. HepG2 cells synthesize and secrete into the culture supernatant apoB-100-associated lipoprotein particles, which in principle are similar in structure to the VLDL and LDL particles to be found in plasma.
These particles can be detected with an immunoassay for human LDL. This immunoassay is carried out with antibodies which had been induced in the rabbit against human LDL under standard conditions. The anti-LDL antibodies (rab-anti-LDL- ab) were purified by affinity chromatography on an immunosorbent with human LDL. These purified rab-anti-LDL-ab are adsorbed onto the surface of a plastic. This adsorption is expediently carried out onto the plastic surface of microtitre plates with 96 wells, preferably on MaxiSorp plates. If apoB-100-associated particles are present in the supernatant of Hep-G2 cells, these can bind to the insolubilized rab-anti-LDL-ab, and an immune complex bonded to the plastic surface is formed. Non-bound proteins are removed by washing. The immune complex on the plastic surface is detected with monoclonal antibodies which have been induced against human LDL and purified under standard conditions. These antibodies were conjugated with the enzyme peroxidase. Peroxidase converts the colourless substrate TMB into a coloured product in the presence of H2 O2. After acidification of the reaction mixture with H2 SO4, the specific adsorption of light at 450 nm is determined, this being a measure of the amount of apoB-100-associated particles which have been secreted into the culture supernatant by the HepG2 cells.
The IC50 value indicates the concentration of substance at which the adsorption of light is inhibited by 50% compared with the control (solvent control without substance).

Row | Compound | IC50
1 | COc1ccc(CC(=O)NC(c2ccc(Cn3c4ccccc4c4c(C)cc(C)nc43)cc2)C2CCCC2)cc1 (stereo not drawn) [Example 5] | 0.038 µM
2 | Cc1cc(C)c2c3ccccc3n(Cc3ccc(C(NC(=O)Cc4ccccc4)C4CCCC4)cc3)c2n1 (stereo not drawn) [Example 4] | 0.034 µM
3 | Cc1cc(C)c2c3ccccc3n(Cc3ccc(C(NC(=O)C(O)c4ccccc4)C4CCCC4)cc3)c2n1 (racemic) [Example 18, 9-{4-[1-(R,S)-1-(2-(R,S)-2-Phenyl-2-hydroxy-acetyl)amino-1-cyclopentyl-methyl]phenyl-methyl}-2,4-dimethyl-α-carboline] | 0.039 µM
4 | Cc1cc(C)c2c3ccccc3n(Cc3ccc(C(NS(=O)(=O)Cc4ccccc4)C4CCCC4)cc3)c2n1 (stereo not drawn) [Example 3] | 0.46 µM
5 | Cc1cc(C)c2c3ccccc3n(Cc3ccc(C(N)C4CCCC4)cc3)c2n1 (racemic) [Example 1, 9-{4-[1-(R,S1-Amino-1-cyclopentyl-methyl]phenyl-methyl}-2,4-dimethyl-(α-carboline] | > 2 µM
6 | Cc1cc(C)c2c3ccccc3n(Cc3ccc(C(NC(=O)C(=NO)c4ccccc4)C4CCCC4)cc3)c2n1 (racemic) [Example 24, 9-{4-[1-(R,S)-1-(2-(E,Z)-2-hydroxyimino-2-phenyl-acetyl)amino-1-cyclopentyl-methyl]phenyl-methyl}-2,4-dimethyl-α-carboline] | 0.3 µM
